This note sets out measurements from ChEMBL document CHEMBL3351765, “Recent progress in sodium channel modulators for pain” (Bioorg Med Chem Lett, 2014).

Molecules are shown by their SMILES.

The target in assay [1] is T1, Sodium channel protein type 9 subunit alpha (Homo sapiens, UniProt Q15858). The assay can be described thus: Inhibition of human Nav1.7 expressed in HEK cells by whole-cell patch-clamp technique. The class given is cell-based, HEK293. In general terms: The patch-clamp technique gives a direct electrical read-out from membranes.
T1 sequence (Q15858 whole entry): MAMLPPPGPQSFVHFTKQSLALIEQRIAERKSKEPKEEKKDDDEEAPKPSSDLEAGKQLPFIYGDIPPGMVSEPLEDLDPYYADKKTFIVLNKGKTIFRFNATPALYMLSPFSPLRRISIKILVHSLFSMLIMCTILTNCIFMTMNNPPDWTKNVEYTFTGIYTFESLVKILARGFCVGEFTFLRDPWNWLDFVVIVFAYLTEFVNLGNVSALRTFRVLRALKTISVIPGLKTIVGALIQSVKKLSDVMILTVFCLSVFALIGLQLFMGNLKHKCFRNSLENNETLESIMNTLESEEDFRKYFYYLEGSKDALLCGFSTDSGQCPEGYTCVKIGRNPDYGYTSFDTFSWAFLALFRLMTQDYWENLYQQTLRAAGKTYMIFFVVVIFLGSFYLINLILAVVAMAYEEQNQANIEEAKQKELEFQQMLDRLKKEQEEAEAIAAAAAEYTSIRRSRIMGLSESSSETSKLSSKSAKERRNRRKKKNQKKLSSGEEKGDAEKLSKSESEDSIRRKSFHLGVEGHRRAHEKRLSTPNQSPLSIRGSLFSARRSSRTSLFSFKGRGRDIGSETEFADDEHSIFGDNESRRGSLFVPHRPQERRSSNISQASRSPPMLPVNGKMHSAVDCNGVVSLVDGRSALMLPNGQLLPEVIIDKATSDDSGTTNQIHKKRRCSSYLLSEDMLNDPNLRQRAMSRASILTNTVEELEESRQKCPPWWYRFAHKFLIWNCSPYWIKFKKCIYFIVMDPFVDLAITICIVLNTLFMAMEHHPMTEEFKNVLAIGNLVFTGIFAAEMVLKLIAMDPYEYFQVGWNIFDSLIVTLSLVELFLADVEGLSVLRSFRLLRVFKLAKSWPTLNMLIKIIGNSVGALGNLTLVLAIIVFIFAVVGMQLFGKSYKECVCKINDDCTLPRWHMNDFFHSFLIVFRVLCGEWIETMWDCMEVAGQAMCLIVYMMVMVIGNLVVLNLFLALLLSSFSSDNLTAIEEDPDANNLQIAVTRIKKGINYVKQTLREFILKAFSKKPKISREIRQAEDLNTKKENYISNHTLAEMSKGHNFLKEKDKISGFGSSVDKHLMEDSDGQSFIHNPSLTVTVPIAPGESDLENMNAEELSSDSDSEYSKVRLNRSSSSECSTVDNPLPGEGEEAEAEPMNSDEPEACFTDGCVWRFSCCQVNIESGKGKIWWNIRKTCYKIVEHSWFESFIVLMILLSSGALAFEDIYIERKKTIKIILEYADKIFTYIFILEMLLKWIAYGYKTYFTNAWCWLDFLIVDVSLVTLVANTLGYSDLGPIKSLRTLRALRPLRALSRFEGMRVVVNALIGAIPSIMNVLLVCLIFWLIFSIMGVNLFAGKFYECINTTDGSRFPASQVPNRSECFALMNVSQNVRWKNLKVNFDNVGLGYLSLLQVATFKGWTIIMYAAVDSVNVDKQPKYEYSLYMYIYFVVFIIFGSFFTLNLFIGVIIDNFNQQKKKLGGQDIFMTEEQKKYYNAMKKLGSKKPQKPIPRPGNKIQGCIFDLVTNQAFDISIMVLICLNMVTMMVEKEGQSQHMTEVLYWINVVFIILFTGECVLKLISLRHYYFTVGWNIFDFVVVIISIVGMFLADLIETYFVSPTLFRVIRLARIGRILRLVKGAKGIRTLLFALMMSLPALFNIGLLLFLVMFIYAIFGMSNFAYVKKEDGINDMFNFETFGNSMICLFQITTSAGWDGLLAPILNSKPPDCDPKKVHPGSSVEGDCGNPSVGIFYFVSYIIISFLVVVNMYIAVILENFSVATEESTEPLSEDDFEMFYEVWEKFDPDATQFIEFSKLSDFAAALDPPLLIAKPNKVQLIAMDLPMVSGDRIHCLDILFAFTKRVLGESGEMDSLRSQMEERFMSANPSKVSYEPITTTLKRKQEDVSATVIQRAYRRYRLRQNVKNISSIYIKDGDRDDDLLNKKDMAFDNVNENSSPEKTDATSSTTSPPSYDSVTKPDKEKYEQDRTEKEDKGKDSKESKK
The test system of a further assay is HEK293. The assay can be described thus: Selectivity ratio of IC50 for human Nav1.5 to IC50 for human Nav1.7 expressed in HEK293 cells. The class given is cell-based.
The target of assay [2] is T1, Sodium channel protein type 9 subunit alpha. The assay can be described thus: Inhibition of Nav1.7 (unknown origin) expressed in HEK293 cells by PatchXpress method. The class given is cell-based.
For assay [3], the target named is T2, Sodium channel protein type 5 subunit alpha (Homo sapiens, UniProt Q14524). Kind of assay: Inhibition of Nav1.5 (unknown origin) expressed in HEK293 cells by IonWorks patch-clamp method. The class given is cell-based.
T2 sequence (Q14524 whole entry): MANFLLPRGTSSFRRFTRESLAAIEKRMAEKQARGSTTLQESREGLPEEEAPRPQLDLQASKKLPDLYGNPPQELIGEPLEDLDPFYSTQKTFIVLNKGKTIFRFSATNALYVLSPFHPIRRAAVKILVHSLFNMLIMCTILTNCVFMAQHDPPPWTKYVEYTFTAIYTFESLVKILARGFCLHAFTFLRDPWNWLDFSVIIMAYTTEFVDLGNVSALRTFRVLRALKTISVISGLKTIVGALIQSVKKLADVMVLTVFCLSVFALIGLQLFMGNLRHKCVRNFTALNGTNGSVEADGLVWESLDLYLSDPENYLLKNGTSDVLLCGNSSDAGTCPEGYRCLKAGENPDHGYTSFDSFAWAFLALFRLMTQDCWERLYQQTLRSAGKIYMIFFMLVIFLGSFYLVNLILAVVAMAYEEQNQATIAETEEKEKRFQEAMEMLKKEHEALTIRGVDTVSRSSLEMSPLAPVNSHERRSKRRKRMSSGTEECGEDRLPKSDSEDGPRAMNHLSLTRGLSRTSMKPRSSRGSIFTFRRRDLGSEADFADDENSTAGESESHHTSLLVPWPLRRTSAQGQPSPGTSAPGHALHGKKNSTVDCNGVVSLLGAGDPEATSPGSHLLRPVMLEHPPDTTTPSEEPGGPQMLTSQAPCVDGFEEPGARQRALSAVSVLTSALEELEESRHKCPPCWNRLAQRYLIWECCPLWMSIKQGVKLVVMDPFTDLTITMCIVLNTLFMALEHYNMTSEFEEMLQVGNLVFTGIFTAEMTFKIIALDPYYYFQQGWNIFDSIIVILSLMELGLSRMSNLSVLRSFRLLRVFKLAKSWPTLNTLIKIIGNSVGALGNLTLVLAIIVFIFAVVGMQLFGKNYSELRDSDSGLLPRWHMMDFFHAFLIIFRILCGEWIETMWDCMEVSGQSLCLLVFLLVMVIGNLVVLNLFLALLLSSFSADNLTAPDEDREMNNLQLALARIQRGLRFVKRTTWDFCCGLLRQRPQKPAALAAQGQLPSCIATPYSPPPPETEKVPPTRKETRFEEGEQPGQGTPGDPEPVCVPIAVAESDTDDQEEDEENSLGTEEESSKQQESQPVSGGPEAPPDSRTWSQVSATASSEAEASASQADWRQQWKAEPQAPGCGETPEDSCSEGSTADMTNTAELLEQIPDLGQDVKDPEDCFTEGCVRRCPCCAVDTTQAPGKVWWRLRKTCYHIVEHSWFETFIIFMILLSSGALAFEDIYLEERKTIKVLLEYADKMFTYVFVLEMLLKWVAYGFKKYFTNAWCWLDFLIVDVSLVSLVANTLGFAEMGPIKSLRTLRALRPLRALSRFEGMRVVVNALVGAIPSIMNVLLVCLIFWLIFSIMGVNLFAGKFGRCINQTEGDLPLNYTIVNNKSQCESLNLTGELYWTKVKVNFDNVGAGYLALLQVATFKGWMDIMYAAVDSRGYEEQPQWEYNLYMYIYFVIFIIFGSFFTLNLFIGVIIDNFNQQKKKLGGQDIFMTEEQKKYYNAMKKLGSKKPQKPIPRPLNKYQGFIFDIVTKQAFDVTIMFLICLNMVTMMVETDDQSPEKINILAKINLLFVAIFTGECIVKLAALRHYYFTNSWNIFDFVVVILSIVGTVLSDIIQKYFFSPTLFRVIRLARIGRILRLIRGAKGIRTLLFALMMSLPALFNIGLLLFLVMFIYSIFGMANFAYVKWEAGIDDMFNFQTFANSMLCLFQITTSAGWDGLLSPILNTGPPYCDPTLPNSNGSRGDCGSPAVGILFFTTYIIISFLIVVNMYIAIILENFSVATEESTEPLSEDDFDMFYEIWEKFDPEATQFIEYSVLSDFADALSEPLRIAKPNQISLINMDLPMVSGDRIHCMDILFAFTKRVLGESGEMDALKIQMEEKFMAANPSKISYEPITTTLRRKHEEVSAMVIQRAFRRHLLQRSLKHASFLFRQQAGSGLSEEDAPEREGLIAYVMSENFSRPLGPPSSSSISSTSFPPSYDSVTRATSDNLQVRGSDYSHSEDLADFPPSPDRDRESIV
In assay [4] the target is T1, Sodium channel protein type 9 subunit alpha. The assay can be described thus: Inhibition of human Nav1.7 expressed in HEK293 cells […] by QPatch method. The class given is cell-based.
For assay [5] the target is unchanged. The assay can be described thus: Inhibition of human Nav1.7 expressed in HEK cells by patch-clamp method. Type of assay: cell-based, HEK293.
Assay [6] has the same target. The assay can be described thus: Inhibition of Nav1.7 (unknown origin).
Assay [7] has as its target T2, Sodium channel protein type 5 subunit alpha. The assay can be described thus: Inhibition of Nav1.5 (unknown origin).
Assay [8] has as its target T1, Sodium channel protein type 9 subunit alpha. Kind of assay: Inhibition of human Nav1.7 expressed in HEK293 cells by FLIPR method. Type of assay: cell-based.
For assay [9] the target is unchanged. Kind of assay: Inhibition of human Nav1.7 expressed in HEK293 cells by electrophysiology method. Type of assay: cell-based.

In [1], `CC1(COc2ccc(-n3nc(C4CC4)c4cc(C(=O)NS(C)(=O)=O)ccc43)cn2)CC1` gave an IC50 of 130 nM. Take `C[C@H](c1ccccc1C1(F)CNC1)n1c(=O)oc2cc(S(=O)(=O)Nc3nccs3)c(F)cc21`: the Ratio IC50 with HEK293 was found to be 5540. Take `Cn1cc(-c2ccc(C(F)(F)F)cc2-c2cn[nH]c2)c2ccc(S(=O)(=O)Nc3ncns3)cc21`: the IC50 is 38 nM in assay [2] and greater than 10000 nM in [3]. As for `Cc1ccc(OCC(C)C)c(-c2cccc([C@H]3CC[C@]4(CCN(C)C4=O)N3)c2)c1`, the IC50 in assay [4] is 398 nM.

Regarding `COc1cc(C(=O)N2CCC3(CC2)c2ccc(C(F)(F)F)n2CCN3C)ccc1OC(C)C`, the IC50 in assay [5] was less than 2000 nM. Regarding `CCOc1ncccc1-c1cc(C(=O)NS(C)(=O)=O)ccc1Oc1ccc(Cl)c(C(F)(F)F)c1`, in assay [1], the IC50 is 35 nM.

In [6], `O=S(=O)(Nc1ncns1)c1cc(F)c(OC[C@@H]2CNCC[C@H]2c2ccc(Cl)cc2)cc1F` yielded an IC50 of 3.3 nM. As to `Nc1noc2ccc(-c3cc(Cl)ccc3Oc3cc(F)c(S(=O)(=O)Nc4ncns4)cc3F)cc12`, the 50% inhibitory concentration (IC50) in assay [7] was greater than 1000 nM. In assay [8], `CCCCCN1C(=O)COCC1c1cncc(-c2ccc(OC(F)(F)F)cc2)c1` (centres undefined) had a concentration for half-maximal inhibition (IC50) of 770 nM. The molecule `CN(C)c1ccc(C(=O)NC2CC23CCN(c2ccccc2)CC3)c2ccccc12` (centres undefined) came in with a half-inhibitory concentration (IC50) in assay [8] of 237 nM.

Take `COc1cc(C(=O)N2CCC3(CC2)CN(CC(F)F)CC(c2ccccn2)O3)ccc1OC(C)C` (centres undefined): the 50% inhibitory concentration (IC50) in [5] is less than 2000 nM. Molecule `CCOC1CC(c2scnc2C)OC2(CCN(C(=O)c3ccc(OC(C)C)c(C)c3)CC2)C1` (centres undefined) displayed a half-maximal inhibitory concentration (IC50) in [5] of less than 2000 nM. `O=S(=O)(Nc1ncns1)c1ccc2c(c1)OCCN2c1ccc(C(F)(F)F)cc1Cl` had a concentration for half-maximal inhibition (IC50) in assay [3] greater than 10000 nM. In assay [3], `O=S(=O)(Nc1ncns1)N1CCc2c(cccc2-c2ccc(C(F)(F)F)cc2C2=CCNCC2)C1` registered an IC50 greater than 10000 nM. On to `Cc1oc2nc(-c3ccccc3Cl)nn2c1CNCCc1ccccc1Cl`, for which the half-maximal inhibitory concentration (IC50) in assay [8] is 620 nM. The molecule `NC(=O)c1cnc(-c2ccc(Oc3cc(F)cc(Cl)c3)cc2)nc1[C@@H](O)CO` yielded a half-maximal inhibitory concentration (IC50) in assay [8] of 67 nM. In assay [9], this molecule came in with an inhibition constant Ki of 27 nM.

On to `O=C(NCC1CCCCN1)c1ccc(Oc2cc(C(F)(F)F)cc(C(F)(F)F)c2)cc1` (centres undefined), for which the concentration for half-maximal inhibition (IC50) in assay [8] amounted to 1150 nM.

Usually IC50 stands for the midpoint of a concentration-inhibition curve. The term Ki denotes the dissociation constant of the complex between target and ligand, obtained from inhibition or displacement.
